Experimental data reported in patent EP0119332A1, “Novel pyranose oxidase processes for the production and use thereof and test compositions for use therein” (priority 1983, dated 1984).
Read-outs that look alike come from different tables or passages of the source.

Key:
Assay type in all cases: biochemical
pyranose oxidase [1] = target: T1, pyranose oxidase (Trametes versicolor, UniProt P79076); assay: biochemical
T1 construct: made in house; host or cells: Coriolus versicolor ATCC 20155, the native producer (not recombinant); Enzyme was purified from disrupted mycelium by HPA-75, Sepharose 4B and Sephadex G-100 columns
Procedure: Samples of the enzyme were dissolved in Tris buffer solutions have the pH indicated in Figure 2 to make up enzyme solutions having an activity of 250 mU/3.7 ml. Each of the enzyme solutions was put into a BIOXYGRAPH cell (trade name for a cell for measuring oxygen concentration made by Kyusui Kagaku Laboratory, Japan), and 50 µℓ of 1 M glucose were added. Measurements were made to determine the amount of absorbed oxygen.
Various inhibitors were studied in the same manner as that adopted in determination of the optimum pH. A reaction solution comprising 3.4 ml of 50 mM tris-hydrochloride buffer (pH 7.0), 0.1 ml of enzyme solutin containing 280 mU of pyranose oxidase and 0.2 ml of 18.5 mM inhibitor solution were put into a cell for measuring oxygen uptake and 50µℓof 1M glucose were added thereto and the sample incubated at 37°C.

pyranose oxidase [2] = target: T1, pyranose oxidase; assay: Substrate specificity (relative activity on carbohydrates, peroxidase/4AA-phenol colour assay); conditions: substrate: 0.1 ml of 100 mM carbohydrate liquor; enzyme 2.5 U/ml; percentage of the glucose reaction
Procedure: A 3.0 ml sample is first prepared comprising 1.0 ml of 0.1 M tris-hydrochloride buffer (pH 7.0), 0.2 ml of a colouring reagent prepared in advance as hereinafter described, 0.1 ml of 1 M glucose solution, 0.1 ml of a solution of the pyranose oxidase at a known concentration, 0.1 ml of 0.1 mM flavinadenine dinucleotide and 1.5 ml of distilled water. Said colouring reagent is prepared by adding 0.1 M tris-hydrochloride buffer (pH 7.0) containing 10 m mol ℓ4-aminoantipyrine (hereinafter referred to as 4AA) and 10 m mol/Zphenol, to an amount of a peroxidase which is sufficient to provide a peroxidase concentration in said buffer of 2000 U per 100 mI. The pyranose oxidase containing sample is incubated at 37°C and the increasing rate of the absorbancy at 500 nm is automatically measured on a spectrophotometer. If the molecular extinction coefficient of a quinoneimine pigment formed under these conditions is defined as 5.3 x 10^3, and one unit of enzymatic activity is defined as the amount of the enzyme that produces one µ mole of hydrogen peroxide per minute at a temperature of 37°C and at a pH of 7.0, then the enzymatic activity (A) of the pyranose oxidase in the sample can be defined by the following formula:- [formula] where A500 is the rate of increase of the absorbancy of the sample per minute at 500nm.
The same reactions as described in the assay method for enzymatic activity were repeated except that an enzyme concentration of 2.5 U/ml was used, and, as the substrate, 0.1 ml samples of various carbohydrate liquors indicated in Table I were used, each such liquor having a concentration of 100 mM. […] The specificity with respect to the latter two, in particular being a great deal lower than that of the known pyranose oxidase derived from microorganisms of the genus Polyporus (Table 1 of B.B.A. 167, 501-510 (1968)).

pyranose oxidase [3] = target: T1, pyranose oxidase
Procedure: In this phase, 1.4 ml of 50 mM tris-hydrochloride buffer (pH 7.0), 0.1. ml of 250 mU enzyme solution and 0.5 ml of electron acceptor solutions having various concentrations as indicated in Table 2 were put into a cell with Thunberg tube. After saturating with dissolved oxygen, the reaction solution was mixed with 0.5 ml of a 0.1 M glucose solution. The change in absorbancy per minute from 30 minutes to 90 minutes after mixing was determined and the activities of the electron acceptors are expressed as relative activity.

[4] = 0.2 ml of 18.5 mM inhibitor solution, 280 mU pyranose oxidase, pH 7.0, 37°C, 50 µl of 1M glucose
[5] = electron acceptor concentration 0.1 mM, pH 7.0, 250 mU enzyme solution, 0.1 M glucose solution

Molecule: copper sulfate
- Percent Inhibition (%) (pyranose oxidase [1]; [4]): 35.7%

Molecule: O=C(O)[C@H](O)[C@@H](O)[C@H](O)[C@H](O)CO [gluconic acid]
- Relative Activity (%) (pyranose oxidase [2]): 0%

Molecule: O=[N+]([O-])[O-].[Ag+] [silver nitrate]
- Percent Inhibition (%) (pyranose oxidase [1]; [4]): 53.3%

Molecule: O=C[C@H](O)[C@@H](O)[C@H](O)CO [xylose]
- Relative Activity (%) (pyranose oxidase [2]): 2.6%

Molecule: cobalt sulfate
- Percent Inhibition (%) (pyranose oxidase [1]; [4]): 13.3%

Molecule: O=C1C(Cl)=CC(=Nc2ccc(O)cc2)C=C1Cl [2,6-Dichlorophenolindophenol]
- Relative Activity (%) (pyranose oxidase [3]; electron acceptor concentration 0.04 mM, pH 7.0, 250 mU enzyme solution, 0.1 M glucose solution): 2.5%

Molecule: O=C(CO)[C@@H](O)[C@H](O)[C@H](O)CO [fructose]
- Relative Activity (%) (pyranose oxidase [2]): 0%

Molecule: NC(=O)c1ccc[n+]([C@@H]2O[C@H](COP(=O)([O-])OP(=O)(O)OC[C@H]3O[C@@H](n4cnc5c(N)ncnc54)[C@H](O)[C@@H]3O)[C@@H](O)[C@H]2O)c1 [Nicotinamide-adenine dinucleotide]
- Relative Activity (%) (pyranose oxidase [3]; [5]): 0%

Molecule: OC[C@H]1O[C@H](O[C@H]2[C@H](O)[C@@H](O)[C@H](O)O[C@@H]2CO)[C@H](O)[C@@H](O)[C@@H]1O [maltose]
- Relative Activity (%) (pyranose oxidase [2]): 0%

Molecule: Oc1cccc2cccnc12 [8-hydroxyquinoline]
- Percent Inhibition (%) (pyranose oxidase [1]; pH 7): 13.3%

Molecule: magnesium sulfate
- Percent Inhibition (%) (pyranose oxidase [1]; [4]): 0%

Molecule: NC(=O)c1ccc[n+]([C@@H]2O[C@H](COP(=O)([O-])OP(=O)(O)OC[C@H]3O[C@@H](n4cnc5c(N)ncnc54)[C@H](OP(=O)(O)O)[C@@H]3O)[C@@H](O)[C@H]2O)c1 [Nicotinamide-adenine dinucleotide phosphate]
- Relative Activity (%) (pyranose oxidase [3]; [5]): 0%

Molecule: N[C@H]1C(O)O[C@H](CO)[C@@H](O)[C@@H]1O (stereo partly shown) [glucosamine]
- Relative Activity (%) (pyranose oxidase [2]): 0%

Molecule: O=O [Oxygen]
- electron acceptor suitability (in words) (pyranose oxidase [3]): optimum electron acceptor
- Relative Activity (%) (pyranose oxidase [3]; pH 7): 100%

Molecule: OC[C@H]1O[C@H](O[C@H]2O[C@H](CO)[C@@H](O)[C@H](O)[C@H]2O)[C@H](O)[C@@H](O)[C@@H]1O [trehalose]
- Relative Activity (%) (pyranose oxidase [2]): 0%

Molecule: OO [hydrogen peroxide]
- inhibition at 18500 µM (pyranose oxidase [1]; pH 7, read-out: Percent Inhibition (%)): 20%

Molecule: OC[C@H]1O[C@@H](O[C@H]2[C@H](O)[C@@H](O)C(O)O[C@@H]2CO)[C@H](O)[C@@H](O)[C@H]1O (stereo partly shown) [lactose]
- Relative Activity (%) (pyranose oxidase [2]): 0%

Molecule: O=C[C@H](O)[C@@H](O)[C@@H](O)[C@H](O)CO [galactose]
- Relative Activity (%) (pyranose oxidase [2]): 0.9%

Molecule: Nitroprusside-tetrazolium
- Relative Activity (%) (pyranose oxidase [3]; [5]): 0%

Molecule: O=C(CO)[C@H](O)[C@@H](O)[C@H](O)CO [sorbose]
- Relative Activity (%) (pyranose oxidase [2]): 3.4%

Molecule: OC[C@@H](O)[C@@H](O)[C@H](O)[C@H](O)CO [mannitol]
- Relative Activity (%) (pyranose oxidase [2]): 0%
